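Method: 48-hour compound exposure of cells in 96-well plates, five concentrations, linear interpolation of endpoints. GI50 is the concentration that inhibits growth by half.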 Activity calls are given as the source filed them. Cut-off read from the data, not from the text of the source: active = GI50 up to about 1.1 µM and inactive = higher.
Experiments:
Experiment in all cases: DTP human tumour cell line panel, 48 h
SF-268 = test system: SF-268
SK-MEL-28 = test system: SK-MEL-28
OVCAR-5 = test system: OVCAR-5
RXF 393 = test system: RXF 393
HOP-92 = test system: HOP-92
786-0 = test system: 786-0
Malme-3M = test system: Malme-3M
UACC-257 = test system: UACC-257
HOP-62 = test system: HOP-62
COLO 205 = test system: COLO 205
NCI-H226 = test system: NCI-H226
A549 = test system: A549
SNB-75 = test system: SNB-75
TK-10 = test system: TK-10
LOX IMVI = test system: LOX IMVI
SW-620 = test system: SW-620
UACC-62 = test system: UACC-62
SN12C = test system: SN12C
NCI-H460 = test system: NCI-H460
HT-29 = test system: HT-29
IGROV-1 = test system: IGROV-1
HL-60 = test system: HL-60
SK-MEL-5 = test system: SK-MEL-5
RPMI-8226 = test system: RPMI-8226
EKVX = test system: EKVX
CCRF-CEM = test system: CCRF-CEM
OVCAR-3 = test system: OVCAR-3
KM12 = test system: KM12
NCI/ADR-RES = test system: NCI/ADR-RES
PC-3 = test system: PC-3
SNB-19 = test system: SNB-19
HCT-116 = test system: HCT-116
NCI-H23 = test system: NCI-H23
MCF7 = test system: MCF7
MDA-N = test system: MDA-N
MDA-MB-435 = test system: MDA-MB-435
T47D = test system: T47D
SF-295 = test system: SF-295
CAKI-1 = test system: CAKI-1
K562 = test system: K562
A498 = test system: A498
Hs-578T = test system: Hs-578T
MDA-MB-231 = test system: MDA-MB-231
OVCAR-4 = test system: OVCAR-4
HCT-15 = test system: HCT-15
UO-31 = test system: UO-31
ACHN = test system: ACHN
SK-OV-3 = test system: SK-OV-3
U-251 = test system: U-251
M14 = test system: M14
MOLT-4 = test system: MOLT-4
DU-145 = test system: DU-145
SK-MEL-2 = test system: SK-MEL-2
SF-539 = test system: SF-539
NCI-H522 = test system: NCI-H522
SR = test system: SR
OVCAR-8 = test system: OVCAR-8
HCC 2998 = test system: HCC 2998

`CO/N=C(/C(=O)OC)c1ccccc1COc1cccc(C(F)(F)F)c1` was tested, and the GI50 (SF-268) was 35.5 µM (inactive), the GI50 (SK-MEL-28) was 78.7 µM (inactive) and the GI50 (OVCAR-5) was 76.2 µM (inactive). The GI50 (RXF 393) was 26.4 µM (inactive), the GI50 (HOP-92) was 36.2 µM (inactive) and the GI50 (786-0) was 30.7 µM (inactive). The GI50 (Malme-3M) was 2.3 µM (inactive), the GI50 (UACC-257) was 8.51 µM (inactive) and the GI50 (HOP-62) was 21.2 µM (inactive). The GI50 (COLO 205) was 41.8 µM (inactive), the GI50 (NCI-H226) was 29.4 µM (inactive) and the GI50 (A549) was 38.1 µM (inactive). For the same molecule, the GI50 (SNB-75) was 31.7 µM (inactive), the GI50 (TK-10) was 11.4 µM (inactive) and the GI50 (LOX IMVI) was 22.9 µM (inactive). For the same molecule, the GI50 (SW-620) was 42.5 µM (inactive), the GI50 (UACC-62) was 18.2 µM (inactive) and the GI50 (SN12C) was 43.9 µM (inactive). The GI50 (NCI-H460) was 28.8 µM (inactive), the GI50 (HT-29) was 46.9 µM (inactive) and the GI50 (IGROV-1) was 30.2 µM (inactive). For the same molecule, the GI50 (HL-60) was 9.68 µM (inactive), the GI50 (SK-MEL-5) was 4.79 µM (inactive) and the GI50 (RPMI-8226) was 6.18 µM (inactive). The GI50 (EKVX) was 7.62 µM (inactive), the GI50 (CCRF-CEM) was 16 µM (inactive) and the GI50 (OVCAR-3) was 11.6 µM (inactive). The GI50 (KM12) was 18.8 µM (inactive), the GI50 (NCI/ADR-RES) was 36.9 µM (inactive) and the GI50 (PC-3) was 22 µM (inactive). For the same molecule, the GI50 (SNB-19) was 71.4 µM (inactive), the GI50 (HCT-116) was 10.8 µM (inactive) and the GI50 (NCI-H23) was 27.9 µM (inactive). The GI50 (MCF7) was 25.3 µM (inactive), the GI50 (MDA-N) was 27.4 µM (inactive) and the GI50 (MDA-MB-435) was 29.3 µM (inactive). For the same molecule, the GI50 (T47D) was 9.55 µM (inactive), the GI50 (SF-295) was 7.23 µM (inactive) and the GI50 (CAKI-1) was 12.1 µM (inactive). For the same molecule, the GI50 (K562) was 18.5 µM (inactive), the GI50 (A498) was 43.5 µM (inactive) and the GI50 (Hs-578T) was 25.8 µM (inactive). The GI50 (MDA-MB-231) was 72.8 µM (inactive), the GI50 (OVCAR-4) was 19.5 µM (inactive) and the GI50 (HCT-15) was 29.2 µM. The GI50 (UO-31) was 39.8 µM (inactive), the GI50 (ACHN) was 33.3 µM (inactive) and the GI50 (SK-OV-3) was 38.9 µM (inactive). For the same molecule, the GI50 (U-251) was 36.4 µM (inactive), the GI50 (M14) was 24.6 µM (inactive) and the GI50 (MOLT-4) was 10.6 µM (inactive). For the same molecule, the GI50 (DU-145) was 26.5 µM (inactive), the GI50 (SK-MEL-2) was 36.1 µM (inactive) and the GI50 (SF-539) was 54.1 µM (inactive). For the same molecule, the GI50 (NCI-H522) was 20 µM (inactive).

In the case of `CCOC(=O)/C=C/C(=O)O/C=C/[N+](=O)[O-]`, the GI50 (SF-268) is reported as > 100 µM (inactive), the GI50 (OVCAR-5) is reported as > 100 µM (inactive) and the GI50 (SR) is reported as > 100 µM (inactive). The GI50 (RXF 393) was > 100 µM (inactive), the GI50 (HOP-92) was > 100 µM (inactive) and the GI50 (786-0) was > 100 µM (inactive). The GI50 (OVCAR-8) was > 100 µM (inactive), the GI50 (UACC-257) was > 100 µM (inactive) and the GI50 (HOP-62) was > 100 µM (inactive). The GI50 (COLO 205) was > 100 µM (inactive), the GI50 (NCI-H226) was > 100 µM (inactive) and the GI50 (SNB-75) was > 100 µM (inactive). For the same molecule, the GI50 (TK-10) was > 100 µM (inactive), the GI50 (LOX IMVI) was > 100 µM (inactive) and the GI50 (SW-620) was > 100 µM (inactive). For the same molecule, the GI50 (UACC-62) was > 100 µM (inactive), the GI50 (SN12C) was > 100 µM (inactive) and the GI50 (NCI-H460) was > 100 µM (inactive). The GI50 (HT-29) was > 100 µM (inactive), the GI50 (IGROV-1) was > 100 µM (inactive) and the GI50 (HL-60) was > 100 µM (inactive). The GI50 (SK-MEL-5) was > 100 µM (inactive), the GI50 (RPMI-8226) was > 100 µM (inactive) and the GI50 (EKVX) was > 100 µM (inactive). For the same molecule, the GI50 (CCRF-CEM) was 4.54 µM (inactive), the GI50 (OVCAR-3) was > 100 µM (inactive) and the GI50 (KM12) was > 100 µM (inactive). The GI50 (NCI/ADR-RES) was > 100 µM (inactive), the GI50 (HCT-116) was > 100 µM (inactive) and the GI50 (NCI-H23) was > 100 µM (inactive). The GI50 (MCF7) was > 100 µM (inactive), the GI50 (MDA-N) was > 100 µM (inactive) and the GI50 (MDA-MB-435) was > 100 µM (inactive). The GI50 (T47D) was > 100 µM (inactive), the GI50 (SF-295) was > 100 µM (inactive) and the GI50 (CAKI-1) was 33.3 µM (inactive). The GI50 (A498) was > 100 µM (inactive), the GI50 (Hs-578T) was > 100 µM (inactive) and the GI50 (MDA-MB-231) was > 100 µM (inactive). The GI50 (HCT-15) was > 100 µM, the GI50 (UO-31) was > 100 µM (inactive) and the GI50 (ACHN) was > 100 µM (inactive). For the same molecule, the GI50 (HCC 2998) was > 100 µM (inactive), the GI50 (SK-OV-3) was > 100 µM (inactive) and the GI50 (U-251) was > 100 µM (inactive). The GI50 (M14) was > 100 µM (inactive), the GI50 (MOLT-4) was > 100 µM (inactive) and the GI50 (DU-145) was > 100 µM (inactive). The GI50 (SF-539) was > 100 µM (inactive) and the GI50 (NCI-H522) was > 100 µM (inactive).

From ChEMBL document CHEMBL1201862, “PubChem BioAssay data set” (2004)
